The subject of one experiment is sodium channels. Description: [14C]-labelled guanidine flux through sodium channels. Format: biochemical, rat. Particulars: inhibition of flux of [14C]-labelled guanidine through sodium channels.
The subject of another experiment is optic nerve. Description: tissue or blood. Particulars: Rattus norvegicus; 30 μM of each drug; OGD 1 h; cGMP accumulation; compared with protection achieved by TTX; read-out: % protection accorded. Type of experiment: cell-based.
The test system of the next experiment is optic nerve axons. Description: Optic nerve pathology: axonal damage caused by the NO donor PAPA/NO. Format: cell-based, rat. On the procedure:
Optic nerves were excised from adult Wistar rats (weighing 240-280 g) after decapitation. They comprised lengths of nerve (each about 9 mm long) running from immediately behind the eyeball to just in front of the optic chiasm. […] The flasks were held in a shaking water bath at 37° C.
After 1-2 h preincubation in aCSF, test nerves received the NO donor, PAPA/NO (1 mM) for 2 h or OGD was imposed by transferring the nerves for 1 h into aCSF lacking glucose and gassed with 5% CO2 in N2. Afterwards, the nerves were allowed a 90 min recovery period in aCSF. Putative protectant drugs were present from 15 min before until 15 min after the NO exposure or OGD.
After dehydration the tissues were embedded in Durcupan resin. Semithin (1 μm) sections were stained with either toluidine blue.
The data are expressed as mean number of axons greater than 2.5 μm in diameter per […] (±S.E.M.) in fields from 5-39 nerves.

Several values for one entry are separate records, joined by “and”; a condition that tells them apart may be missing. Identical values can stand only once. Like-named read-outs stand apart in the source and are kept apart here. Bounds are passed on as bounds.

The term IC50 denotes the point on the concentration scale where inhibition reaches its midpoint. Read a high IC50 as a need for much substance.

As for `Cn1nc(C(C)(C)C)cc1C(=O)Nc1ccc(C(C)(C)C)cc1` [Example 26, 5-tert-Butyl-2-methyl-2H-pyrazole-3-carboxylic acid (4-tert-butyl-phenyl)-amide], the concentration for half-maximal inhibition (IC50) with sodium channels was below 9 µM; in the experiment with sodium channels (listed as 5-tert-Butyl-2-methyl-2H-pyrazole-3-carboxylic acid (4-tert-butyl-phenyl)-amide) it was 2 µM. Also, in the experiment on optic nerve, the inhibition at 30 µM worked out at 18%.

In the experiment with sodium channels, `Cn1nc(C(C)(C)C)cc1C(=O)Nc1ccc(Cl)cc1` [5-tert-Butyl-2-methyl-2H-pyrazole-3-carboxylic acid (4-chloro-phenyl)-amide] yielded a concentration for half-maximal inhibition (IC50) of 6 µM. Moreover, the inhibition at 30 µM in the experiment on optic nerve amounted to 62%.

`Cn1c(SCC(=O)c2ccc(Cl)cc2)nnc1-c1cc(C(C)(C)C)nn1Cc1ccc(F)cc1` [2-{5-[5-tert-Butyl-2-(4-fluoro-benzyl)-2H-pyrazol-3-yl]-4-methyl-4H-[1,2,4]triazol-3-ylsulfanyl}-1-(4-chloro-phenyl)-ethanone] had a half-maximal inhibitory concentration (IC50) in the experiment on sodium channels of 4.6 µM. Further, the inhibition at 30 µM with optic nerve was 19%.

For `CCCN(CCCN)/[N+]([O-])=N/O` [PAPA/NO], in the experiment on optic nerve axons (PAPA/NO (1 mM) for 2 h alone, no protectant, mean ± S.E.M.), the “Index of Axonopathy” value is given as 226 ± 22 axons greater than 2.5 μm in diameter per 10^4 m^2.

On to `Cc1ccc(NC(=O)c2cc(C(C)(C)C)nn2Cc2ccccc2)cc1` [2-Benzyl-5-tert-butyl-2H-pyrazole-3-carboxylic acid p-tolylamide], for which inhibition with sodium channels was half-maximal at 2 µM (IC50). Also, the inhibition at 30 µM with optic nerve was determined as 66%.

The compound `Cc1cc(C(=O)Nc2ccc(C(C)(C)C)cc2)nn1C(C)(C)C` [1-tert-Butyl-5-methyl-1H-pyrazole-3-carboxylic acid (4-tert-butyl-phenyl)-amide] showed a half-maximal inhibitory concentration (IC50) in the experiment on sodium channels of 6 µM. In the experiment with optic nerve, the inhibition at 30 µM is 39%.

Take `CC(=O)Nc1ccc(NC(=O)c2cc(C(C)(C)C)nn2Cc2ccc(Cl)cc2Cl)cc1` [Example 39, 5-tert-Butyl-2-(2,4-dichloro-benzyl)-2H-pyrazole-3-carboxylic acid (4-acetylamino-phenyl)-amide]: in the experiment with sodium channels, the IC50 stood at 24 µM.

For `Cc1cccc(NC(=O)c2cc(C)n(Cc3c(Cl)cccc3Cl)n2)c1` [1-(2,6-Dichloro-benzyl)-5-methyl-1H-pyrazole-3-carboxylic acid m-tolylamide], the midpoint of inhibition in the experiment on sodium channels, the IC50, lay at 7 µM. For the same compound, in the experiment with optic nerve, the inhibition at 30 µM is 29%.

Compound “5-[3-tert-Butyl-1-(2,4-dichlorobenzyl)pyrazol-5-yl]-4-methyltriazole-3-thiol” showed an IC50 in the experiment with sodium channels below 9 µM.

In the case of `CCn1nc(C)cc1-c1nnc(SCc2ccccc2)n1-c1ccccc1` [3-(Benzylthio)-5-(1-ethyl-3-methyl-1H-pyrazol-5-yl)-4-phenyl-4H-1,2,4-triazolehemihydrate], 20 µM corresponded to half-maximal inhibition in the experiment with sodium channels (IC50).

On to `CC(C)(C)c1cc(C(=O)NCCc2ccccc2)n(Cc2ccc(Cl)cc2Cl)n1` [Example 15, 5-tert-Butyl-2-(2,4-dichloro-benzyl)-2H-pyrazole-3-carboxylic acid phenethyl-amide], for which the IC50 in the experiment with sodium channels was 10 µM.

`CCn1nc(-c2cccs2)cc1C(=O)Nc1ccc(Cl)cc1` [Example 13, 2-Ethyl-5-thiophen-2-yl-2H-pyrazole-3-carboxylic acid (4-chloro-phenyl)-amide]: half-maximal inhibition in the experiment with sodium channels (IC50) was put at 17 µM.

On to `CC(C)(C)c1cc(C(=O)NNC(=O)Nc2cccc(Cl)c2)n(Cc2ccccc2)n1` [2-Benzyl-5-tert-butyl-2H-pyrazole-3-carboxylic acid N′-(3-chlorophenylcarbamoyl) hydrazide], for which the IC50 with sodium channels came out at 5.8 µM. Also, in the experiment on optic nerve, the inhibition at 30 µM is 12%.

On to `COc1ccc(NC(=O)c2cc(C(C)(C)C)nn2Cc2ccc(Cl)cc2Cl)cc1` [Example 12, 5-tert-Butyl-2-(2,4-dichloro-benzyl)-2H-pyrazole-3-carboxylic acid (4-methoxy-phenyl)-amide], for which the IC50 in the experiment on sodium channels is below 9 µM.

Take `CC(C)(C)c1cc(C(=O)Nc2ccc(Cl)cc2)n(Cc2ccc(Cl)cc2Cl)n1` [Example 14, (S)-5-tert-Butyl-2-(2,4-dichloro-benzyl)-2H-pyrazole-3-carboxylic acid (4-chloro-phenyl)-amide]: half-maximal inhibition in the experiment on sodium channels (IC50) was put at 29 µM.

`Cn1nc(C(C)(C)C)cc1C(=O)Nc1cccc(-c2cnco2)c1` [Example 29, 5-tert-Butyl-2-methyl-2H-pyrazole-3-carboxylic acid (3-oxazol-5-yl-phenyl)-amide]: in the experiment on sodium channels, the half-inhibitory concentration (IC50) worked out at 9 µM.

`Cn1nc(C(C)(C)C)cc1C(=O)Nc1ccc(Cl)c(Cl)c1` [Example 23, 5-tert-Butyl-2-methyl-2H-pyrazole-3-carboxylic acid (3,4-dichloro-phenyl)-amide] displayed a half-maximal inhibitory concentration (IC50) in the experiment with sodium channels below 9 µM.

Regarding `Cc1cc(C(=O)Nc2ccc(C(C)(C)C)cc2)n(C(C)(C)C)n1` [Example 21, 2-tert-Butyl-5-methyl-2H-pyrazole-3-carboxylic acid (4-tert-butyl-phenyl)-amide], the IC50 in the experiment with sodium channels is below 9 µM.

Regarding `CC(C)(C)c1cc(C(=O)Nc2ccc(Cl)c(Cl)c2)n(Cc2ccccc2)n1` [Example 24, 2-Benzyl-5-tert-butyl-2H-pyrazole-3-carboxylic acid (3,4-dichloro-phenyl)-amide], in the experiment on sodium channels, the IC50 is below 9 µM.

On to `CC(C)(C)c1cc(C(=O)Nc2nc(-c3cccnc3)cs2)n(Cc2ccc(Cl)cc2Cl)n1` [Example 41, 5-tert-Butyl-2-(2,4-dichloro-benzyl)-2H-pyrazole-3-carboxylic acid (4-(pyridin-3-yl)thiazol-2-yl)-amide], for which the half-maximal inhibitory concentration (IC50) in the experiment with sodium channels is 14 µM.

`CC(C)(C)c1cc(C(=O)NCc2ccccc2)n(Cc2ccccc2)n1` [Example 10, 2-Benzyl-5-tert-butyl-2H-pyrazole-3-carboxylic acid benzylamide] came in with an IC50 in the experiment on sodium channels of 7 µM.

For `NCc1noc(-c2nn(Cc3ccccc3)c3ccccc23)n1` [Example 51, 1-Benzyl-3-[3-aminomethyl-1,2,4-oxadiazol-yl]indazole], the midpoint of inhibition in the experiment with sodium channels, the IC50, lay at 22.4 µM.

Regarding `CCNCCCCc1nn(Cc2ccccc2)c2ccccc12` [Example 46, [N-Ethyl-(4-Aminobutyl)]-1-benzylindazole], the IC50 in the experiment on sodium channels stood at 15.5 µM.

With `Cc1ccc(Cn2nc(C(=O)Nc3ccccc3)cc2C)cc1` [5-Methyl-1-(4-methyl-benzyl)-1H-pyrazole-3-carboxylic acid phenylamide], in the experiment on sodium channels, the midpoint of inhibition, the IC50, lay at 23 µM.

`CC(C)(C)c1cc(C(=O)Nc2cccc(C(=O)Nc3ccccc3)c2)n(Cc2ccccc2)n1` [Example 32, 2-Benzyl-5-tert-butyl-2H-pyrazole-3-carboxylic acid (3-phenylcarbamoyl-phenyl)-amide] registered an IC50 with sodium channels of 22 µM.

`Cc1cc(C(=O)Nc2ccc(C(=O)Nc3ccccc3)cc2)n(C(C)(C)C)n1` [Example 31, 2-tert-Butyl-5-methyl-2H-pyrazole-3-carboxylic acid (4-phenylcarbamoyl-phenyl)-amide] returned an IC50 in the experiment on sodium channels of 22 µM.

For `Cn1nc(C(C)(C)C)cc1C(=O)Nc1cccc(C(=O)Nc2ccccc2)c1` [Example 33, 5-tert-Butyl-2-methyl-2H-pyrazole-3-carboxylic acid (3-phenylcarbamoyl-phenyl)-amide], the 50% inhibitory concentration (IC50) with sodium channels turned out to be 22 µM.

Compound `Cc1cc(C(=O)Nc2ncccc2OCc2ccccc2)nn1C(C)(C)C` [Example 37, 1-tert-Butyl-5-methyl-1H-pyrazole-3-carboxylic acid (3-benzyloxy-pyridin-2-yl)-amide] registered an IC50 with sodium channels below 9 µM.

For the compound `Cn1c(SCc2ccccc2)nnc1-c1cc(C(C)(C)C)nn1Cc1ccc(F)cc1` [3-Benzylsulfanyl-5-[5-tert-butyl-2-(4-fluoro-benzyl)-2H-pyrazol-3-yl]-4-methyl-4H-[1,2,4]triazole], the IC50 with sodium channels is 12 µM and 12.3 µM. In addition, the inhibition at 30 µM with optic nerve was found to be 72%.

In the case of `O=C(NO)c1ccc(-c2nn(Cc3ccccc3)c3ccccc23)o1` [Example 6, 1-Benzyl-3-(5-hydroxylaminocarbonyl-2-furyl)-1H-indazole], the IC50 in the experiment with sodium channels stood at 30.9 µM.

Consider `CC(C)(C)c1cc(C(=O)Nc2ccc(Cl)nc2)n(Cc2ccccc2)n1` [Example 34, 2-Benzyl-5-tert-butyl-2H-pyrazole-3-carboxylic acid (6-chloro-pyridin-3-yl)-amide], for which, in the experiment on sodium channels, the 50% inhibitory concentration (IC50) was below 9 µM.

With `NC1=N[C@H](O)[C@H]2[C@H]3O[C@]4(O)O[C@@H]([C@@H](O)[C@@]2(N1)[C@@H]4O)[C@]3(O)CO` [Tetrodotoxin], in the experiment on optic nerve axons, the “Effect on axonal pathology caused by NO (in words)” value is recorded as “eliminated” and the “Index of Axonopathy” value is 17 ± 4 axons greater than 2.5 μm in diameter per 10^4 m^2.

The compound `Cn1c(SCC(=O)c2ccccc2)nnc1-c1cc(C(C)(C)C)nn1Cc1ccc(F)cc1` [2-{5-[5-tert-Butyl-2-(4-fluoro-benzyl)-2H-pyrazol-3-yl]-4-methyl-4H-[1,2,4]triazol-3-ylsulfanyl}-1-phenyl-ethanone] yielded an IC50 in the experiment with sodium channels of 19.5 µM. In the experiment on optic nerve, the inhibition at 30 µM stood at 18%.

(Values after patent publication US7790761B2, “Blockade of voltage dependent sodium channels” (University College London, priority 2000, dated 2010).)
